One data set has as its target T1, δ opioid receptor (Mus musculus, UniProt P32300).
T1 construct: Each of the vas deferens isolated from the mice was hung in a Magnus tube; from tissue; host or cells: vas deferens of male ddy strain mice
The experiment in a line: Mouse vas deferens (MVD): antagonism against the δ agonist DPDPE, pA2 by Schild method. The format is cell-based. The method, then: Using mouse vas deferens (MVD), the compounds were examined for antagonism against opioid receptor agonists, i.e., morphine (μ), DPDPE (δ), and U50,488H (κ).
Male ddy strain mice were used in this experiment. Each of the vas deferens isolated from the mice was hung in a Magnus tube which was maintained at 37° C., filled with a Krebes-Henseleit solution (NaCl 118 mM; KCl 4.7 mM; CaCl2 2.5 mM; KH2PO4 1.1 mM; NaHCO3 25 mM; glucose 11 mM), and aerated with 5% carbon dioxide and 95% oxygen. Electric stimulation was applied through upper and lower ring-shaped platinum electrodes at 0.1 Hz and 5.0 mS. Tissue contraction was recorded on a polygraph using an Isometric Transducer.
Morphine, DPDPE, and U50,488H were added in a cumulative manner to determine the IC50 values (concentration for 50% inhibition of contraction induced by electric stimulation). Next, 10 nM of a sample compound was added to the system beforehand, and 20 minutes later, morphine, DPDPE, and U50,488H were added in a cumulative manner. According to the above procedure, the ratio of the IC50 values of morphine, DPDPE, and U50,488H in the presence of the sample compound to that in its absence was determined, and the pA2 values were calculated in accordance with the Schild et al.'s method (Schild, H. O., Br. J. Pharamacol. Chemother. 4, 277 (1949)).

SMILES strings stand for the structures. Where a name gives a salt, the structure may show the parent alone.

T1 sequence (P32300 whole entry): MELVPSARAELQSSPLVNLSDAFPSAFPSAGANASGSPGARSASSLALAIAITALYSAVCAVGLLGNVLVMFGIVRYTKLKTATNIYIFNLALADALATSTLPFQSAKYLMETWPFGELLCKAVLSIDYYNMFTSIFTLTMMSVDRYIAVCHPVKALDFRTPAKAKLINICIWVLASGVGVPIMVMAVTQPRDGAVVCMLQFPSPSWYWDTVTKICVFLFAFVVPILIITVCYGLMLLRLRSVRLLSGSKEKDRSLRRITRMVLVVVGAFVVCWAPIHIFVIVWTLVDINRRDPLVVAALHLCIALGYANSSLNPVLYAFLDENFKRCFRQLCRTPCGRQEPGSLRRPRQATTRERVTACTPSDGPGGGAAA

The melting point is the temperature, or range, at which the solid turns liquid. Regarding `Oc1ccc2c3c1O[C@H]1c4c(c5c(O)c(F)cc6c5n4CCC6)C[C@@]4(O)[C@@H](C2)N(CC2CC2)CC[C@]314` (as salt: methanesulfonate), the melting point was 280 °C (dec.).
The same measure, in the same setting: under `Oc1ccc2c3c1O[C@H]1c4c(c5cc(F)cc6c5n4CC[C@@H]6O)C[C@@]4(O)[C@@H](C2)N(CC2CC2)CC[C@]314` (as salt: methanesulfonate) [Compound 3, 17-cyclopropylmethyl-6,7-didehydro-4,5α-epoxy-8′-fluoro-5′,6′-dihydro-4′H-pyrrolo[3,2,1-ij]quinolino[2′,1′:6,7]-morphinan-3,6′β,14β-triol] stands 240 °C (dec.).
In general, Kb refers to the equilibrium dissociation constant of an antagonist, usually derived from a functional assay. A higher Kb goes with lower antagonist affinity. As to `Oc1ccc2c3c1O[C@H]1c4c(c5cc(F)cc6c5n4CC[C@@H]6O)C[C@@]4(O)[C@@H](C2)N(CC2CC2)CC[C@]314` [Compound 3, 17-cyclopropylmethyl-6,7-didehydro-4,5α-epoxy-8′-fluoro-5′,6′-dihydro-4′H-pyrrolo[3,2,1-ij]quinolino[2′,1′:6,7]-morphinan-3,6′β,14β-triol], the Kb on δ opioid receptor was 3.98 nM. This lies in the single-digit nanomolar range.

These data come from patent US6770654B2, “Indole derivatives and use thereof in medicines” (Toray Industries, Inc., priority 2000, dated 2004).
